Experimental findings from BindingDB's records for doi:10.1016/j.bmcl.2004.10.005 (Bristol Myers Squibb, 2004) are described below.

pIC50: −log10 of the molar value.

The term pIC50 denotes the negative decadic logarithm of the IC50, by convention in mol/L. The low end stands for a high IC50, the high end for a low IC50.

The target in this assay is T1, Neuropeptide Y receptor type 1 (Homo sapiens, UniProt P25929).
T1 sequence (P25929 whole entry): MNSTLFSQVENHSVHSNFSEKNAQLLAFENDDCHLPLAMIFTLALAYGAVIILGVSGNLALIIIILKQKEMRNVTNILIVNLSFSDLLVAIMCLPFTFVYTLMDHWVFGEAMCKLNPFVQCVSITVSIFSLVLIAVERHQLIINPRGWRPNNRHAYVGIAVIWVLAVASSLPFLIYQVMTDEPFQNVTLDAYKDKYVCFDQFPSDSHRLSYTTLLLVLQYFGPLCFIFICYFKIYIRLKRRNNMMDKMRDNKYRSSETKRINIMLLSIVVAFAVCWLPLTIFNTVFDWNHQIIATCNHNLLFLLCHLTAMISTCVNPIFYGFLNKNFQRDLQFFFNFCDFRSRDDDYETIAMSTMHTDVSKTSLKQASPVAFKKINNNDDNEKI
As to the kind of experiment: Inhibition of binding of [125I]PYY to membranes of SK-N-MC cells expressing the human Y1 receptors.
Turning to `COC(=O)C1=C(C)N=C(C)C(C(=O)OC)C1c1cccc(NC(=NC#N)NCCNC2CCN(c3cccc(Cl)c3)CC2)c1` (stereo unspecified) [N-arylpiperazine derivative], the pIC50 was 8.10.

Compound `COC(=O)C1=C(C)N=C(C)C(C(=O)OC)C1c1cccc(NC(=O)NCCNC2CCN(c3ccccc3SC)CC2)c1` (stereo unspecified) [2,6-Dimethyl-4-[3-(3-{2-[1-(2-methylsulfanyl-phenyl)-piperidin-4-ylamino]-ethyl}-ureido)-phenyl]-1,4-dihydro-pyridine-3,5-dicarboxylic acid dimethyl ester] showed a pIC50 of 8.30.

For the compound `COC(=O)C1=C(C)N=C(C)C(C(=O)OC)C1c1cccc(NC(=NC#N)NCCNC2CCN(c3ccccc3C)CC2)c1` (stereo unspecified) [N-arylpiperazine derivative], the pIC50 is 8.40.

Turning to `COC(=O)C1=C(C)N=C(C)C(C(=O)OC)C1c1cccc(NC(=O)NCCNC2CCN(c3ccccc3)CC2)c1` (stereo unspecified) [2,6-Dimethyl-4-(3-{3-[2-(1-phenyl-piperidin-4-ylamino)-ethyl]-ureido}-phenyl)-1,4-dihydro-pyridine-3,5-dicarboxylic acid dimethyl ester], the pIC50 is 8.70.

For the compound `COC(=O)C1=C(C)NC(C)=C(C(=O)OC)C1c1cccc(NC(=NC#N)NCCNC2CCN(c3ccccc3[N+](=O)[O-])CC2)c1` [N-arylpiperazine derivative], the pIC50 was 8.40.

Take `COC(=O)C1=C(C)N=C(C)C(C(=O)OC)C1c1cccc(NC(=O)NCCNC2CCN(c3ccccc3C)CC2)c1` (stereo unspecified) [2,6-Dimethyl-4-(3-{3-[2-(1-o-tolyl-piperidin-4-ylamino)-ethyl]-ureido}-phenyl)-1,4-dihydro-pyridine-3,5-dicarboxylic acid dimethyl ester]: the pIC50 is 8.40.

Compound `COC(=O)C1=C(C)N=C(C)C(C(=O)OC)C1c1cccc(NC(=NC#N)NCCNC2CCN(c3ccccc3C#N)CC2)c1` (stereo unspecified) [N-arylpiperazine derivative] showed a pIC50 of 8.52.

The compound `COC(=O)C1=C(C)N=C(C)C(C(=O)OC)C1c1cccc(NC(=NC#N)NCCNC2CCN(c3ccccc3SC)CC2)c1` (stereo unspecified) [N-arylpiperazine derivative] had a pIC50 of 8.52.

In the case of `COC(=O)C1=C(C)N=C(C)C(C(=O)OC)C1c1cccc(NC(=O)NCCNC2CCN(c3ccccc3C#N)CC2)c1` (stereo unspecified) [4-[3-(3-{2-[1-(2-Cyano-phenyl)-piperidin-4-ylamino]-ethyl}-ureido)-phenyl]-2,6-dimethyl-1,4-dihydro-pyridine-3,5-dicarboxylic acid dimethyl ester], the pIC50 was 8.52.

Turning to `COC(=O)C1=C(C)N=C(C)C(C(=O)OC)C1c1cccc(NC(=O)NCCNC2CCN(c3cccc(Cl)c3)CC2)c1` (stereo unspecified) [4-[3-(3-{2-[1-(3-Chloro-phenyl)-piperidin-4-ylamino]-ethyl}-ureido)-phenyl]-2,6-dimethyl-1,4-dihydro-pyridine-3,5-dicarboxylic acid dimethyl ester], the pIC50 was 8.10.

On to `COC(=O)C1=C(C)NC(C)=C(C(=O)OC)C1c1cccc(NC(=O)NCCNC2CCN(c3ccccc3[N+](=O)[O-])CC2)c1` [2,6-Dimethyl-4-[3-(3-{2-[1-(2-nitro-phenyl)-piperidin-4-ylamino]-ethyl}-ureido)-phenyl]-1,4-dihydro-pyridine-3,5-dicarboxylic acid dimethyl ester], for which the pIC50 was 8.70.
